Tests used:
Beta2 = assay: Gene expression in islets from diabetic KKAy-mice, real time RT-PCR (Example 2): Beta2; type: in vivo; details: islets of KKAy-mice after nine weeks treatment, normalized to 18S rRNA
Description: (§1) A the end of the nine week period of the in vivo study in example 1 RNA was purified from Islets, muscle, liver and fat from the three experimental groups, using standard techniques as described in Kiergen, RNA easy.
(§2) Gene expression of PDX-1, IRS1, Beta2, 11beta-HSD-1, Akt1, C/EBP-alpha, CPT1, GLUT2, IGF1, IR and Ins1 was measured with Real time RT-PCR using Taq Man Assays normalized to 18S rRNA, using the standard protocol (ABI, USA). All reagents were obtained from (ABI, USA). All probes are standard probes obtainable from ABI, USA, under the specific probe code number, given in respect of each gene.

INS-1 = assay: Gene expression in islets from diabetic KKAy-mice, real time RT-PCR (Example 2): INS-1; type: in vivo; details: islets of KKAy-mice after nine weeks treatment, normalized to 18S rRNA
Description: as §1, §2

GLUT2 = assay: Relative real time RT-PCR in islets of KKAy mice (Example 3): GLUT2; type: in vivo; details: 9 weeks
Description: (§3) Islets were isolated by the collagenase digestion technique. In brief, the animals were anesthetized with pentobarbital (50 mg/kg intraperitoneally) and midline laparotomy was performed. The pancreas was retrogradely filled with 3 mL ice-cold Hanks balanced salt solution (([HBSS] Sigma Chemical, St Louis, Mo.) supplemented with 0.3 mg/ml collagenase Boehringer Mannheim GmbH, Germany). The pancreas was subsequently removed and incubated for 19 minutes at 37° C. After rinsing in HBSS, the islets were handpicked under a stereomicroscope and immediately transferred to a tubes containing 1 ml Trizol (Gibco/Invitrogene, Calsbad, Calif., USA). The islets isolated from the NMRI mice were incubated overnight at 37° C. and 95% normal atmosphere/5% CO2 in 10 ml RPMI 1640 containing 11.1 mmol/L glucose supplemented with penicillin G and 100 μg/mL streptomycin (all Gibco/Invitrogene, Calsbad, Calif., USA).
(§4) For each group, islets from 3-4 mice (180-200 islets) were pooled in 1 ml Trizol reagent (Gibco/lnvitrogene, Calsbad, Calif., USA) before RNA purification. Total RNA was extracted according to the manufactures' instructions. RNA was quantified by measuring absorbance at 260 and 280 nm. The quality of the RNA was checked by the Agilent 2100 bioanalyzer (Agilent, Santa Clara, USA). […]

C/EBPalpha [1] = assay: Relative real time RT-PCR in islets of KKAy mice (Example 3): C/EBPalpha; type: in vivo; details: 9 weeks
Description: as §3, §4

11-beta-HSD-1 [2] = assay: Relative real time RT-PCR in islets of KKAy mice (Example 3): 11-beta-HSD-1; type: in vivo; details: 9 weeks
Description: as §3, §4

C/EBPalpha [3] = assay: Affymetrix gene chip analysis of KKAy islets: C/EBPalpha; type: in vivo, mice; details: ISV vs. KKAy control islets, 9 weeks
Description: (§5) cRNA preparation and in vitro transcription: In total 6 Affymetrix arrays MOE430 2.0 probe array cartridge were used i.e. for analysis of 3 replicas for the KKAy control group and the ISV group, respectively. Each of the 6 samples consisted of pooled RNA from 3-4 KKAy mice. Preparation of target for hybridization was prepared from 340 ng of total RNA using MessageAmp™ II aRNA Amplification Kits (Ambion), according to the manufacturers instructions. Arrays were hybridised and scanned as described elsewhere (Kruhoffer et al., 2005).

11-beta-HSD-1 [4] = assay: Affymetrix gene chip analysis of KKAy islets: 11-beta-HSD-1; type: in vivo, mice; details: ISV vs. KKAy control islets, 9 weeks
Description: as §5

InsI = assay: Affymetrix gene chip analysis of KKAy islets: InsI; type: in vivo, mice; details: ISV vs. KKAy control islets, 9 weeks
Description: as §5

Nkx6-1 = assay: Affymetrix gene chip analysis of KKAy islets: Nkx6-1; type: in vivo, mice; details: ISV vs. KKAy control islets, 9 weeks
Description: as §5

C[C@@]12CC[C@@H]3[C@@](CC[C@H]4[C@@]3(C)CCC[C@@]4(C)C(=O)O)(CC1=O)C2 (single isomer, unassigned; ent-16) [ISV, ent-16-ketobeyeran-19-oic acid]
increased expression of beta2 compared to standard diet (Beta2): 60%
increased expression of INS-1 compared to standard diet (INS-1): 132%
up regulation of the GLUT2 gene transcript (GLUT2; RT-PCR): more than 3 fold
increased expression of GLUT2, ISV group vs. control group (GLUT2; normalized to 18S rRNA): 201%
reduction of C/EBP-alpha mRNA expression (C/EBPalpha [1]; RT-PCR): 2 fold
decreased expression of C/EBPalpha, ISV group vs. control group (C/EBPalpha [1]; normalized to 18S rRNA): 49%
down regulation of 11-beta-HSD-1 (11-beta-HSD-1 [2]; RT-PCR): 2.5 fold
decreased expression of 11-beta-HSD-1, ISV group vs. control group (11-beta-HSD-1 [2]; normalized to 18S rRNA): 61%
array: change of C/EBPalpha expression (C/EBPalpha [3]): down regulation
array: change of 11-beta-HSD-1 expression (11-beta-HSD-1 [4]): down regulation
array: change of InsI expression (InsI): did not show any statistical significant increase
array: increased expression in Nkx6-1 (Nkx6-1): 2.64 fold

From patent US20100093861A1, “TREATMENT OF INSULIN RESISTANCE OR DISEASES ASSOCIATED WITH INSULIN RESISTANCE” (Stevia ApS, priority 2006, published 2010)
